Measured values: ChEMBL document CHEMBL1828534, “Synthesis and antitumor activity of 1,2,4-triazoles having 1,4-benzodioxan fragment as a novel class of potent methionine aminopeptidase type II inhibitors” (Bioorg Med Chem, 2011)

molecular target: Methionine aminopeptidase 2 (Homo sapiens, UniProt P50579); assay: Inhibition of MetAP2 after 4 hrs; conditions: not given
Sequence (P50579 whole entry): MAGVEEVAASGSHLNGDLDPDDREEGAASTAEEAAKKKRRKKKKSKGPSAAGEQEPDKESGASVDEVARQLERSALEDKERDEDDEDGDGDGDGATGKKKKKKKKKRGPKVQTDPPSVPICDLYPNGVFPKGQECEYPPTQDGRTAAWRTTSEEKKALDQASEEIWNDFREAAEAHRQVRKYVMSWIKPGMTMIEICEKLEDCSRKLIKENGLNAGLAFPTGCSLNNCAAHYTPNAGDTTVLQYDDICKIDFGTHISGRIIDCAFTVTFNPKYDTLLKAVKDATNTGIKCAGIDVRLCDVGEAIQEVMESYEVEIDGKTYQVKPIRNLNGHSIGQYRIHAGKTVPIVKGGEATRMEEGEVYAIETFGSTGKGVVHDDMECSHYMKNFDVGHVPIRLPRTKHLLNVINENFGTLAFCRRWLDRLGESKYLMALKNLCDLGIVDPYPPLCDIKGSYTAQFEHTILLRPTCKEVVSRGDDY

Compound	IC50 [µM]
CO[C@@H]1[C@H](OC(=O)NC(=O)CCl)CC[C@]2(CO2)[C@H]1[C@@]1(C)O[C@@H]1CC=C(C)C [O-CHLOROACETYLCARBAMOYLFUMAGILLOL]	1.05

test system: HepG2; assay: Induction of apoptosis in human HepG2 cells after 24 hrs using annexin V-FITC and propidium iodide staining by flow cytometry analysis; type: functional, cell-based; conditions: not given

Compound	Activity
Fc1ccccc1CSc1nnc(-c2ccc3c(c2)OCCO3)n1-c1ccccc1	Dose-dependent effect

test system: HepG2; assay: Induction of apoptosis in human HepG2 cells assessed as viable cells at 0.5 uM after 24 hrs using annexin V-FITC and propidium iodide staining by flow cytometry analysis (Rvb =96.26 %); type: functional; conditions: HepG2, 24 h, read-out: Activity

Compound	viability at 0.5 µM [%]
Fc1ccccc1CSc1nnc(-c2ccc3c(c2)OCCO3)n1-c1ccccc1	58.3

test system: HepG2; assay: Induction of apoptosis in human HepG2 cells assessed as early apoptotic cells at 0.5 uM after 24 hrs using annexin V-FITC and propidium iodide staining by flow cytometry analysis (Rvb =0.02 %); type: functional; conditions: not given

Compound	Activity [%]
Fc1ccccc1CSc1nnc(-c2ccc3c(c2)OCCO3)n1-c1ccccc1	0.8

test system: HepG2; assay: Induction of apoptosis in human HepG2 cells assessed as late apoptotic/necrotic cells at 0.5 uM after 24 hrs using annexin V-FITC and propidium iodide staining by flow cytometry analysis (Rvb =0.02 %); type: functional; conditions: not given

Compound	Activity [%]
Fc1ccccc1CSc1nnc(-c2ccc3c(c2)OCCO3)n1-c1ccccc1	8

test system: HepG2; assay: Induction of apoptosis in human HepG2 cells assessed as late pre-necrotic cells at 0.5 uM after 24 hrs using annexin V-FITC and propidium iodide staining by flow cytometry analysis (Rvb =0.02 %); type: functional; conditions: not given

Compound	Activity [%]
Fc1ccccc1CSc1nnc(-c2ccc3c(c2)OCCO3)n1-c1ccccc1	32.8

test system: HepG2; assay: Induction of apoptosis in human HepG2 cells assessed as viable cells at 1 uM after 24 hrs using annexin V-FITC and propidium iodide staining by flow cytometry analysis (Rvb =96.26 %); type: functional; conditions: HepG2, 24 h, read-out: Activity

Compound	viability at 1 µM [%]
Fc1ccccc1CSc1nnc(-c2ccc3c(c2)OCCO3)n1-c1ccccc1	58.9

test system: HepG2; assay: Induction of apoptosis in human HepG2 cells assessed as early apoptotic cells at 1 uM after 24 hrs using annexin V-FITC and propidium iodide staining by flow cytometry analysis (Rvb =0.02 %); type: functional; conditions: not given

Compound	Activity [%]
Fc1ccccc1CSc1nnc(-c2ccc3c(c2)OCCO3)n1-c1ccccc1	3.49

test system: HepG2; assay: Induction of apoptosis in human HepG2 cells assessed as late apoptotic/necrotic cells at 1 uM after 24 hrs using annexin V-FITC and propidium iodide staining by flow cytometry analysis (Rvb =0.02 %); type: functional; conditions: not given

Compound	Activity [%]
Fc1ccccc1CSc1nnc(-c2ccc3c(c2)OCCO3)n1-c1ccccc1	13.17

test system: HepG2; assay: Induction of apoptosis in human HepG2 cells assessed as late pre-necrotic cells at 1 uM after 24 hrs using annexin V-FITC and propidium iodide staining by flow cytometry analysis (Rvb =0.02 %); type: functional; conditions: not given

Compound	Activity [%]
Fc1ccccc1CSc1nnc(-c2ccc3c(c2)OCCO3)n1-c1ccccc1	24.49

test system: HepG2; assay: Induction of apoptosis in human HepG2 cells assessed as viable cells at 2 uM after 24 hrs using annexin V-FITC and propidium iodide staining by flow cytometry analysis (Rvb =96.26 %); type: functional; conditions: HepG2, 24 h, read-out: Activity

Compound	viability at 2 µM [%]
Fc1ccccc1CSc1nnc(-c2ccc3c(c2)OCCO3)n1-c1ccccc1	50.8

test system: HepG2; assay: Induction of apoptosis in human HepG2 cells assessed as early apoptotic cells at 2 uM after 24 hrs using annexin V-FITC and propidium iodide staining by flow cytometry analysis (Rvb =0.02 %); type: functional; conditions: not given

Compound	Activity [%]
Fc1ccccc1CSc1nnc(-c2ccc3c(c2)OCCO3)n1-c1ccccc1	4.03

test system: HepG2; assay: Induction of apoptosis in human HepG2 cells assessed as late apoptotic/necrotic cells at 2 uM after 24 hrs using annexin V-FITC and propidium iodide staining by flow cytometry analysis (Rvb =0.02 %); type: functional; conditions: not given

Compound	Activity [%]
Fc1ccccc1CSc1nnc(-c2ccc3c(c2)OCCO3)n1-c1ccccc1	18

test system: HepG2; assay: Induction of apoptosis in human HepG2 cells assessed as late pre-necrotic cells at 2 uM after 24 hrs using annexin V-FITC and propidium iodide staining by flow cytometry analysis (Rvb =0.02 %); type: functional; conditions: not given

Compound	Activity [%]
Fc1ccccc1CSc1nnc(-c2ccc3c(c2)OCCO3)n1-c1ccccc1	27.21

test system: HepG2; assay: Induction of apoptosis in human HepG2 cells assessed as viable cells at 4 uM after 24 hrs using annexin V-FITC and propidium iodide staining by flow cytometry analysis (Rvb =96.26 %); type: functional; conditions: HepG2, 24 h, read-out: Activity

Compound	viability at 4 µM [%]
Fc1ccccc1CSc1nnc(-c2ccc3c(c2)OCCO3)n1-c1ccccc1	39.5

test system: HepG2; assay: Induction of apoptosis in human HepG2 cells assessed as early apoptotic cells at 4 uM after 24 hrs using annexin V-FITC and propidium iodide staining by flow cytometry analysis (Rvb =0.02 %); type: functional; conditions: not given

Compound	Activity [%]
Fc1ccccc1CSc1nnc(-c2ccc3c(c2)OCCO3)n1-c1ccccc1	11

test system: HepG2; assay: Induction of apoptosis in human HepG2 cells assessed as late apoptotic/necrotic cells at 4 uM after 24 hrs using annexin V-FITC and propidium iodide staining by flow cytometry analysis (Rvb =0.02 %); type: functional; conditions: not given

Compound	Activity [%]
Fc1ccccc1CSc1nnc(-c2ccc3c(c2)OCCO3)n1-c1ccccc1	23.25

test system: HepG2; assay: Induction of apoptosis in human HepG2 cells assessed as late pre-necrotic cells at 4 uM after 24 hrs using annexin V-FITC and propidium iodide staining by flow cytometry analysis (Rvb =0.02 %); type: functional; conditions: not given

Compound	Activity [%]
Fc1ccccc1CSc1nnc(-c2ccc3c(c2)OCCO3)n1-c1ccccc1	26.23

test system: HepG2; assay: cells; conditions: Homo sapiens, HepG2, 24 h
Description: Antiproliferative activity against human HepG2 cells after 24 hrs by MTT assay

Compound	IC50 [µM]
CO[C@@H]1[C@H](OC(=O)NC(=O)CCl)CC[C@]2(CO2)[C@H]1[C@@]1(C)O[C@@H]1CC=C(C)C [O-CHLOROACETYLCARBAMOYLFUMAGILLOL]	0.86
Fc1ccccc1CSc1nnc(-c2ccc3c(c2)OCCO3)n1-c1ccccc1	0.81
Brc1ccc(CSc2nnc(-c3ccc4c(c3)OCCO4)n2-c2ccccc2)cc1	7.94
Cc1ccccc1CSc1nnc(-c2ccc3c(c2)OCCO3)n1-c1ccccc1	20.5
Fc1cccc(F)c1CSc1nnc(-c2ccc3c(c2)OCCO3)n1-c1ccccc1	2.07
Brc1cccc(CSc2nnc(-c3ccc4c(c3)OCCO4)n2-c2ccccc2)c1	5.21
COc1cccc(CSc2nnc(-c3ccc4c(c3)OCCO4)n2-c2ccccc2)c1	35.1
O=[N+]([O-])c1ccccc1CSc1nnc(-c2ccc3c(c2)OCCO3)n1-c1ccccc1	12
Fc1ccc(CSc2nnc(-c3ccc4c(c3)OCCO4)n2-c2ccccc2)cc1	1.02
O=[N+]([O-])c1ccc(CSc2nnc(-c3ccc4c(c3)OCCO4)n2-c2ccccc2)cc1	13.8
O=[N+]([O-])c1cccc(CSc2nnc(-c3ccc4c(c3)OCCO4)n2-c2ccccc2)c1	49.3

Further compounds by falling IC50, results first:

IC50 [µM]	Compound
60	Sc1nnc(-c2ccc3c(c2)OCCO3)n1-c1ccccc1
56.8	Cc1ccc(CSc2nnc(-c3ccc4c(c3)OCCO4)n2-c2ccccc2)cc1
5.96	c1ccc(CSc2nnc(-c3ccc4c(c3)OCCO4)n2-c2ccccc2)cc1
4.73	Brc1ccccc1CSc1nnc(-c2ccc3c(c2)OCCO3)n1-c1ccccc1
3.53	Clc1ccc(CSc2nnc(-c3ccc4c(c3)OCCO4)n2-c2ccccc2)cc1
2.39	Clc1cccc(CSc2nnc(-c3ccc4c(c3)OCCO4)n2-c2ccccc2)c1
1.96	Fc1ccc(CSc2nnc(-c3ccc4c(c3)OCCO4)n2-c2ccccc2)c(F)c1
0.97	Clc1ccccc1CSc1nnc(-c2ccc3c(c2)OCCO3)n1-c1ccccc1

test system: HeLa; assay: cells; conditions: Homo sapiens, 24 h
Description: Antiproliferative activity against human HeLa cells after 24 hrs by MTT assay

Compound	IC50 [µM]
CO[C@@H]1[C@H](OC(=O)NC(=O)CCl)CC[C@]2(CO2)[C@H]1[C@@]1(C)O[C@@H]1CC=C(C)C [O-CHLOROACETYLCARBAMOYLFUMAGILLOL]	2.02
Fc1ccccc1CSc1nnc(-c2ccc3c(c2)OCCO3)n1-c1ccccc1	24.2
Brc1ccc(CSc2nnc(-c3ccc4c(c3)OCCO4)n2-c2ccccc2)cc1	54.6
Cc1ccccc1CSc1nnc(-c2ccc3c(c2)OCCO3)n1-c1ccccc1	36
Fc1cccc(F)c1CSc1nnc(-c2ccc3c(c2)OCCO3)n1-c1ccccc1	35.2
Brc1cccc(CSc2nnc(-c3ccc4c(c3)OCCO4)n2-c2ccccc2)c1	44.2
COc1cccc(CSc2nnc(-c3ccc4c(c3)OCCO4)n2-c2ccccc2)c1	> 100
O=[N+]([O-])c1ccccc1CSc1nnc(-c2ccc3c(c2)OCCO3)n1-c1ccccc1	69.8
Fc1ccc(CSc2nnc(-c3ccc4c(c3)OCCO4)n2-c2ccccc2)cc1	46.9
O=[N+]([O-])c1ccc(CSc2nnc(-c3ccc4c(c3)OCCO4)n2-c2ccccc2)cc1	36.2
O=[N+]([O-])c1cccc(CSc2nnc(-c3ccc4c(c3)OCCO4)n2-c2ccccc2)c1	45.2

More lines, now with the values ahead:

IC50 [µM]	Compound
51.9	Sc1nnc(-c2ccc3c(c2)OCCO3)n1-c1ccccc1
49.7	Cc1ccc(CSc2nnc(-c3ccc4c(c3)OCCO4)n2-c2ccccc2)cc1
32.8	c1ccc(CSc2nnc(-c3ccc4c(c3)OCCO4)n2-c2ccccc2)cc1
> 100	Brc1ccccc1CSc1nnc(-c2ccc3c(c2)OCCO3)n1-c1ccccc1
79.2	Clc1ccc(CSc2nnc(-c3ccc4c(c3)OCCO4)n2-c2ccccc2)cc1
15	Clc1cccc(CSc2nnc(-c3ccc4c(c3)OCCO4)n2-c2ccccc2)c1
18.6	Fc1ccc(CSc2nnc(-c3ccc4c(c3)OCCO4)n2-c2ccccc2)c(F)c1
29	Clc1ccccc1CSc1nnc(-c2ccc3c(c2)OCCO3)n1-c1ccccc1

test system: not listed separately; assay: cells; conditions: Homo sapiens, SW 1116, 24 h
Description: Antiproliferative activity against human SW1116 cells after 24 hrs by MTT assay

Compound	IC50 [µM]
CO[C@@H]1[C@H](OC(=O)NC(=O)CCl)CC[C@]2(CO2)[C@H]1[C@@]1(C)O[C@@H]1CC=C(C)C [O-CHLOROACETYLCARBAMOYLFUMAGILLOL]	5.54
Fc1ccccc1CSc1nnc(-c2ccc3c(c2)OCCO3)n1-c1ccccc1	13.6
Brc1ccc(CSc2nnc(-c3ccc4c(c3)OCCO4)n2-c2ccccc2)cc1	5.81
Cc1ccccc1CSc1nnc(-c2ccc3c(c2)OCCO3)n1-c1ccccc1	12.7
Fc1cccc(F)c1CSc1nnc(-c2ccc3c(c2)OCCO3)n1-c1ccccc1	9.01
Brc1cccc(CSc2nnc(-c3ccc4c(c3)OCCO4)n2-c2ccccc2)c1	26.2
COc1cccc(CSc2nnc(-c3ccc4c(c3)OCCO4)n2-c2ccccc2)c1	10.1
O=[N+]([O-])c1ccccc1CSc1nnc(-c2ccc3c(c2)OCCO3)n1-c1ccccc1	8.3
Fc1ccc(CSc2nnc(-c3ccc4c(c3)OCCO4)n2-c2ccccc2)cc1	20.8
O=[N+]([O-])c1ccc(CSc2nnc(-c3ccc4c(c3)OCCO4)n2-c2ccccc2)cc1	13.8
O=[N+]([O-])c1cccc(CSc2nnc(-c3ccc4c(c3)OCCO4)n2-c2ccccc2)c1	7.59

More lines, now with the values ahead:

IC50 [µM]	Compound
38.4	Sc1nnc(-c2ccc3c(c2)OCCO3)n1-c1ccccc1
16.2	Cc1ccc(CSc2nnc(-c3ccc4c(c3)OCCO4)n2-c2ccccc2)cc1
7.93	c1ccc(CSc2nnc(-c3ccc4c(c3)OCCO4)n2-c2ccccc2)cc1
7.35	Brc1ccccc1CSc1nnc(-c2ccc3c(c2)OCCO3)n1-c1ccccc1
8.3	Clc1ccc(CSc2nnc(-c3ccc4c(c3)OCCO4)n2-c2ccccc2)cc1
10.6	Clc1cccc(CSc2nnc(-c3ccc4c(c3)OCCO4)n2-c2ccccc2)c1
7.83	Fc1ccc(CSc2nnc(-c3ccc4c(c3)OCCO4)n2-c2ccccc2)c(F)c1
9.67	Clc1ccccc1CSc1nnc(-c2ccc3c(c2)OCCO3)n1-c1ccccc1

test system: BGC-823; assay: cells; conditions: Homo sapiens, BGC-823, 24 h
Description: Antiproliferative activity against human BGC823 cells after 24 hrs by MTT assay

Compound	IC50 [µM]
CO[C@@H]1[C@H](OC(=O)NC(=O)CCl)CC[C@]2(CO2)[C@H]1[C@@]1(C)O[C@@H]1CC=C(C)C [O-CHLOROACETYLCARBAMOYLFUMAGILLOL]	1.48
Fc1ccccc1CSc1nnc(-c2ccc3c(c2)OCCO3)n1-c1ccccc1	18.6
Brc1ccc(CSc2nnc(-c3ccc4c(c3)OCCO4)n2-c2ccccc2)cc1	33.8
Cc1ccccc1CSc1nnc(-c2ccc3c(c2)OCCO3)n1-c1ccccc1	> 100
Fc1cccc(F)c1CSc1nnc(-c2ccc3c(c2)OCCO3)n1-c1ccccc1	84.2
Brc1cccc(CSc2nnc(-c3ccc4c(c3)OCCO4)n2-c2ccccc2)c1	65.6
COc1cccc(CSc2nnc(-c3ccc4c(c3)OCCO4)n2-c2ccccc2)c1	> 100
O=[N+]([O-])c1ccccc1CSc1nnc(-c2ccc3c(c2)OCCO3)n1-c1ccccc1	26.4
Fc1ccc(CSc2nnc(-c3ccc4c(c3)OCCO4)n2-c2ccccc2)cc1	> 100
O=[N+]([O-])c1ccc(CSc2nnc(-c3ccc4c(c3)OCCO4)n2-c2ccccc2)cc1	48.6
O=[N+]([O-])c1cccc(CSc2nnc(-c3ccc4c(c3)OCCO4)n2-c2ccccc2)c1	30.1

The remaining lines, values ahead:

IC50 [µM]	Compound
47	Sc1nnc(-c2ccc3c(c2)OCCO3)n1-c1ccccc1
44.3	Cc1ccc(CSc2nnc(-c3ccc4c(c3)OCCO4)n2-c2ccccc2)cc1
73.4	c1ccc(CSc2nnc(-c3ccc4c(c3)OCCO4)n2-c2ccccc2)cc1
> 100	Brc1ccccc1CSc1nnc(-c2ccc3c(c2)OCCO3)n1-c1ccccc1
79.3	Clc1ccc(CSc2nnc(-c3ccc4c(c3)OCCO4)n2-c2ccccc2)cc1
51.2	Clc1cccc(CSc2nnc(-c3ccc4c(c3)OCCO4)n2-c2ccccc2)c1
> 100	Fc1ccc(CSc2nnc(-c3ccc4c(c3)OCCO4)n2-c2ccccc2)c(F)c1
17.4	Clc1ccccc1CSc1nnc(-c2ccc3c(c2)OCCO3)n1-c1ccccc1
